Among the data in US20040156869A1, “2-substituted quinazolin-4-ylamine analogues” (Neurogen Corporation, priority 2002, published 2004) are Ki values, retold here.

The target of the experiment is human capsaicin receptor (VR1) (Homo sapiens, UniProt Q8NER1). Kind of experiment: Capsaicin receptor binding assay ([3H]RTX competition, VR1-transfected HEK293 membranes).
human capsaicin receptor (VR1), sequence (Q8NER1 whole entry): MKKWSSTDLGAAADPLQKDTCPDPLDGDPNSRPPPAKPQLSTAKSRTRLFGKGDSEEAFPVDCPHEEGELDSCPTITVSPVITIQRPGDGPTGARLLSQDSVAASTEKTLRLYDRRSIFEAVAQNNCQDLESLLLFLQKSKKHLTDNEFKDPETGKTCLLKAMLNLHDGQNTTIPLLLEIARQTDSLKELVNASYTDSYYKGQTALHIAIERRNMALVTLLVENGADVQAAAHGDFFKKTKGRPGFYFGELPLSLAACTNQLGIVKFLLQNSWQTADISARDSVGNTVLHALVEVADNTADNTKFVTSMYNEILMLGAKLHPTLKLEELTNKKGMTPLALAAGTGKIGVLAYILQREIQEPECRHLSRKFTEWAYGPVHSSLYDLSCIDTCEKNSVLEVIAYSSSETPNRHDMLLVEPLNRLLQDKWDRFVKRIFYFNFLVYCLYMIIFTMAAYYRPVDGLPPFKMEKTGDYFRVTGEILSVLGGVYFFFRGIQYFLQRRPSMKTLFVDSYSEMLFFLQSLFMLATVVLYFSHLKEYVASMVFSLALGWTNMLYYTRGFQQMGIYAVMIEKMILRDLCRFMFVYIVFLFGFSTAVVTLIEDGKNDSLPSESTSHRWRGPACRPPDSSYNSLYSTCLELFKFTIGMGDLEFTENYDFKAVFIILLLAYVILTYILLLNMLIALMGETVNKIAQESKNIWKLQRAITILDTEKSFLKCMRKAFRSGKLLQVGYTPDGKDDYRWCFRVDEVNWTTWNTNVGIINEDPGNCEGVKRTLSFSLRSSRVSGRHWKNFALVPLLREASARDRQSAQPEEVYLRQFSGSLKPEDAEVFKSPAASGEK
In turn, `Cc1cc(Nc2nc(COCC(C)C)nc3nc(-c4ncccc4C)ccc23)ccc1C(F)(F)F` [Compound 183, [2-Isobutoxymethyl-7-(3-methyl-pyridin-2-yl)-pyrido[2,3-d]pyrimidin-4-yl]-(3-methyl-4-trifluoromethyl-phenyl)-amine] registered an inhibitory constant (Ki) of less than 1000 nM.
The compound `CCOCc1nc(Nc2ccc(C(F)(F)F)c(C)c2)c2ccc(-c3ncccc3Cl)nc2n1` [Compound 184, [7-(3-Chloro-pyridin-2-yl)-2-ethoxymethyl-pyrido[2,3-d]pyrimidin-4-yl]-(3-methyl-4-trifluoromethyl-phenyl)-amine] yielded a Ki of less than 1000 nM.
Take `CCOC(=O)c1nc(Nc2ccc(C(C)(C)C)cc2)c2ccc(-c3ncccc3C)nc2n1` [Compound 185, 4-(4-tert-Butyl-phenylamino)-7-(3-methyl-pyridin-2-yl)-pyrido[2,3-d]pyrimidine-2-carboxylic acid ethyl ester]: the Ki was less than 1000 nM.
Compound `O=S(=O)(c1ccc(Nc2nc(CO)nc3cc(-c4ncccc4C(F)(F)F)ccc23)cc1)N1CCCCC1` [Compound 186, [4-[4-(Piperidine-1-sulfonyl)-phenylamino]-7-(3-trifluoromethyl-pyridin-2-yl)-quinazolin-2-yl]-methanol] registered an inhibition constant (Ki) of less than 1000 nM.
For `CN(C(C)(C)C)S(=O)(=O)c1ccc(Nc2nc(CO)nc3cc(-c4ncccc4C(F)(F)F)ccc23)cc1` [Compound 187, N-tert-Butyl-4-[2-hydroxymethyl-7-(3-trifluoromethyl-pyridin-2-yl)-quinazolin-4-ylamino]-N-methyl-benzenesulfonamide] the value was less than 1000 nM; for `COCc1nc(Nc2ccc(OC(F)(F)F)cc2)c2ccc(-c3ncccc3C(F)(F)F)nc2n1` [Compound 188, [2-Methoxymethyl-7-(3-trifluoromethyl-pyridin-2-yl)-pyrido[2,3-d]pyrimidin-4-yl]-(4-trifluoromethoxy-phenyl)-amine], less than 1000 nM.
For `CC(C)COCc1nc(Nc2ccc(OC(F)(F)F)cc2)c2ccc(-c3ncccc3C(F)(F)F)nc2n1` [Compound 189, [2-Isobutoxymethyl-7-(3-trifluoromethyl-pyridin-2-yl)-pyrido[2,3-d]pyrimidin-4-yl]-(4-trifluoromethoxy-phenyl)-amine] the value was less than 1000 nM; for `Cc1cccnc1-c1ccc2c(Nc3ccc(OC(F)(F)F)cc3)nc(COCC(C)C)nc2n1` [Compound 190, [2-Isobutoxymethyl-7-(3-methyl-pyridin-2-yl)-pyrido[2,3-d]pyrimidin-4-yl]-(4-trifluoromethoxy-phenyl)-amine], less than 1000 nM; for `COCc1nc(Nc2ccc(C(C)(C)C)nc2)c2ccc(-c3ncccc3C(F)(F)F)nc2n1` [Compound 191, (6-tert-Butyl-pyridin-3-yl)-[2-methoxymethyl-7-(3-trifluoromethyl-pyridin-2-yl)-pyrido[2,3-d]pyrimidin-4-yl]-amine], less than 1000 nM.
`CC(C)COCc1nc(Nc2ccc(C(C)(C)C)nc2)c2ccc(-c3ncccc3C(F)(F)F)nc2n1` [Compound 192, (6-tert-Butyl-pyridin-3-yl)-[2-isobutoxymethyl-7-(3-trifluoromethyl-pyridin-2-yl)-pyrido[2,3-d]pyrimidin-4-yl]-amine]: the Ki is less than 1000 nM.
In turn, `Cc1cccnc1-c1ccc2c(Nc3ccc(C(C)(C)C)nc3)nc(COCC(C)C)nc2n1` [Compound 193, (6-tert-Butyl-pyridin-3-yl)-[2-isobutoxymethyl-7-(3-methyl-pyridin-2-yl)-pyrido[2,3-d]pyrimidin-4-yl]-amine] showed an inhibitory constant (Ki) of less than 1000 nM.
For `CC(C)COCc1nc(Nc2ccc(C(C)(C)C)nc2)c2ccc(-c3ncccc3Cl)nc2n1` [Compound 194, (6-tert-Butyl-pyridin-3-yl)-[7-(3-chloro-pyridin-2-yl)-2-isobutoxymethyl-pyrido[2,3-d]pyrimidin-4-yl]-amine] the value was less than 1000 nM; for `COCc1nc(Nc2ccc(OC(F)(F)F)cc2)c2ccc(-c3ncccc3Cl)nc2n1` [Compound 195, [7-(3-Chloro-pyridin-2-yl)-2-methoxymethyl-pyrido[2,3-d]pyrimidin-4-yl]-(4-trifluoromethoxy-phenyl)-amine], less than 1000 nM; for `COCc1nc(Nc2ccc(OC(F)(F)F)cc2)c2ccc(-c3ncccc3C)nc2n1` [Compound 196, [2-Methoxymethyl-7-(3-methyl-pyridin-2-yl)-pyrido[2,3-d]pyrimidin-4-yl]-(4-trifluoromethoxy-phenyl)-amine], less than 1000 nM.
The compound `COCc1nc(Nc2ccc(C(F)(F)F)c(C)c2)c2ccc(-c3ncccc3Cl)nc2n1` [Compound 197, [7-(3-Chloro-pyridin-2-yl)-2-methoxymethyl-pyrido[2,3-d]pyrimidin-4-yl]-(3-methyl-4-trifluoromethyl-phenyl)-amine] yielded a Ki of less than 1000 nM.
Consider `COCc1nc(Nc2ccc(C(F)(F)F)c(C)c2)c2ccc(-c3ncccc3C)nc2n1` [Compound 198, [2-Methoxymethyl-7-(3-methyl-pyridin-2-yl)-pyrido[2,3-d]pyrimidin-4-yl]-(3-methyl-4-trifluoromethyl-phenyl)-amine], for which the inhibition constant (Ki) is less than 1000 nM.
With `COCc1nc(Nc2ccc(C(C)(C)C)nc2)c2ccc(-c3ncccc3Cl)nc2n1` [Compound 199, (6-tert-Butyl-pyridin-3-yl)-[7-(3-chloro-pyridin-2-yl)-2-methoxymethyl-pyrido[2,3-d]pyrimidin-4-yl]-amine], the Ki is less than 1000 nM.
As for `COCc1nc(Nc2ccc(C(C)(C)C)nc2)c2ccc(-c3ncccc3C)nc2n1` [Compound 200, (6-tert-Butyl-pyridin-3-yl)-[2-methoxymethyl-7-(3-methyl-pyridin-2-yl)-pyrido[2,3-d]pyrimidin-4-yl]-amine], the Ki was less than 1000 nM.
For `CC(C)(C)c1ccc(Nc2nc(CO)nc3cc(-c4ncccc4C(F)(F)F)cnc23)cc1` [Compound 201, [4-(4-tert-Butyl-phenylamino)-7-(3-trifluoromethyl-pyridin-2-yl)-pyrido[3,2-d]pyrimidin-2-yl]-methanol] the value was less than 1000 nM.
In the case of `O=S(=O)(c1ccc(Nc2nc(CO)nc3cc(-c4ncccc4C(F)(F)F)cnc23)cc1)N1CCCCC1` [Compound 202, [4-[4-(Piperidine-1-sulfonyl)-phenylamino]-7-(3-trifluoromethyl-pyridin-2-yl)-pyrido[3,2-d]pyrimidin-2-yl]-methanol], the inhibition constant (Ki) was less than 1000 nM.
`CN(C(C)(C)C)S(=O)(=O)c1ccc(Nc2nc(CO)nc3cc(-c4ncccc4C(F)(F)F)cnc23)cc1` [Compound 203, N-tert-Butyl-4-[2-hydroxymethyl-7-(3-trifluoromethyl-pyridin-2-yl)-pyrido[3,2-d]pyrimidin-4-ylamino]-N-methyl-benzenesulfonamide] returned a Ki of less than 1000 nM.
`Cc1cccnc1-c1ccc2c(Nc3ccc(C(C)(C)C)cc3)nc(CO)nc2n1` [Compound 204, [4-(4-tert-Butyl-phenylamino)-7-(3-methyl-pyridin-2-yl)-pyrido[2,3d]pyrimidin-2-yl]-methanol] registered a Ki of less than 1000 nM.
`Cc1cccnc1-c1ccc2c(Nc3ccc(C(F)(F)F)cc3)nc(C(=O)O)nc2n1` [Compound 205, 7-(3-Methyl-pyridin-2-yl)-4-(4-trifluoromethyl-phenylamino)-pyrido[2,3-d]pyrimidine-2-carboxylic acid] yielded a Ki of less than 1000 nM.
For `O=C(O)c1nc(Nc2ccc(C(F)(F)F)cc2)c2ccc(-c3ncccc3C(F)(F)F)nc2n1` [Compound 206, 4-(4-Trifluoromethyl-phenylamino)-7-(3-trifluoromethyl-pyridin-2-yl)-pyrido[2,3-d]pyrimidine-2-carboxylic acid] the value was less than 1000 nM; for `Cc1cccnc1-c1ccc2c(Nc3ccc(C(C)(C)C)cc3)nc(C(=O)O)nc2n1` [Compound 207, 4-(4-tert-Butyl-phenylamino)-7-(3-methyl-pyridin-2-yl)-pyrido[2,3-d]pyrimidine-2-carboxylic acid], less than 1000 nM; for `COCc1nc(Nc2ccc(C(C)(C)C(C)=O)cc2)c2ccc(-c3ncccc3C(F)(F)F)nc2n1` [Compound 208, 3-{4-[2-Methoxymethyl-7-(3-trifluoromethyl-pyridin-2-yl)-pyrido[2,3-d]pyrimidin-4-ylamino]-phenyl}-3-methyl-butan-2-one], less than 1000 nM.
For the compound `CC(=O)C(C)(C)c1ccc(Nc2nc(COCC(C)C)nc3nc(-c4ncccc4C)ccc23)cc1` [Compound 209, 3-{4-[2-Isobutoxymethyl-7-(3-methyl-pyridin-2-yl)-pyrido[2,3-d]pyrimidin-4-ylamino]-phenyl}-3-methyl-butan-2-one], the Ki is less than 1000 nM.
On to `CC(=O)C(C)(C)c1ccc(Nc2nc(COCC(C)C)nc3nc(-c4ncccc4Cl)ccc23)cc1` [Compound 210, 3-{4-[7-(3-Chloro-pyridin-2-yl)-2-isobutoxymethyl-pyrido[2,3-d]pyrimidin-4-ylamino]-phenyl}-3-methyl-butan-2-one], for which the inhibition constant (Ki) is less than 1000 nM.
Compound `CC(=O)C(C)(C)c1ccc(Nc2nc(COCC(C)C)nc3nc(-c4ncccc4C(F)(F)F)ccc23)cc1` [Compound 211, 3-{4-[2-Isobutoxymethyl-7-(3-trifluoromethyl-pyridin-2-yl)-pyrido[2,3-d]pyrimidin-4-ylamino]-phenyl}-3-methyl-butan-2-one] registered a Ki of less than 1000 nM.
For `COCc1nc(Nc2ccc(C(C)(C)C(C)=O)cc2)c2ccc(-c3ncccc3C)nc2n1` [Compound 212, 3-{4-[2-Methoxymethyl-7-(3-methyl-pyridin-2-yl)-pyrido[2,3-d]pyrimidin-4-ylamino]-phenyl}-3-methyl-butan-2-one] the value was less than 1000 nM; for `COCc1nc(Nc2ccc(C(C)(C)C(C)=O)cc2)c2ccc(-c3ncccc3Cl)nc2n1` [Compound 213, 3-{4-[7-(3-Chloro-pyridin-2-yl)-2-methoxymethyl-pyrido[2,3-d]pyrimidin-4-ylamino]-phenyl}-3-methyl-butan-2-one], less than 1000 nM; for `CC(C)COCc1nc(Nc2ccc(S(C)(=O)=O)cc2)c2ccc(-c3ncccc3C(F)(F)F)nc2n1` [Compound 214, [2-Isobutoxymethyl-7-(3-trifluoromethyl-pyridin-2-yl)-pyrido[2,3-d]pyrimidin-4-yl]-(4-methanesulfonyl-phenyl)-amine], less than 1000 nM.

What is called Ki is a dissociation constant, usually derived from enzyme kinetics or from competition with a known ligand. A lower Ki goes with higher affinity.
